In ChEMBL document CHEMBL2380214, “Novel hybrids of (phenylsulfonyl)furoxan and anilinopyrimidine as potent and selective epidermal growth factor receptor inhibitors for intervention of non-small-cell lung cancer” (J Med Chem, 2013):
Active and inactive are the calls of the source. The calls are words filed in the database; no cut-off is given here.

What was measured:
[1] = test system: HCC827; experiment: Cytotoxicity against gefitinib-sensitive human HCC827 cells harboring EGFR […] deletion mutant assessed as growth inhibition at 1 uM after 24 hrs by MTT assay in presence of hemoglobin; assay type: functional, cell-based
[2] = test system: NCI-H1975; experiment: Induction of apoptosis in gefitinib-resistant human NCI-H1975 cells harboring EGFR L858R/[…] double mutant after 24 hrs by annexin-V/7-AAD staining-based FACS flow cytometric analysis; assay type: functional, cell-based
[3] = Selectivity ratio of IC50 for human A431 cells overexpressing wild type EGFR to IC50 for gefitinib-resistant human NCI-H1975 cells harboring EGFR L858R/[…] double mutant; assay type: ADME, cell-based
[4] = test system: A-431; experiment: cells; assay type: ADME, cell-based; settings: Homo sapiens, A-431, 72 h
Description: Cytotoxicity against human A431 cells overexpressing wild type EGFR assessed as growth inhibition after 72 hrs by MTT assay

[5] = Selectivity ratio of IC50 for human 16HBE14o- cells harboring wild type EGFR to IC50 for gefitinib-resistant human NCI-H1975 cells harboring EGFR L858R/[…] double mutant; assay type: ADME, cell-based; settings: read-out: Ratio IC50
[6] = cells; assay type: ADME, cell-based; settings: Homo sapiens, 16HBE14o-, 72 h
Description: Cytotoxicity against human 16HBE14o- cells harboring wild type EGFR assessed as growth inhibition after 72 hrs by MTT assay

[7] = test system: NCI-H1975; experiment: Cytotoxicity against gefitinib-resistant human NCI-H1975 cells harboring EGFR L858R/[…] double mutant assessed as growth inhibition at 1 uM after 24 hrs by MTT assay in presence of hemoglobin; assay type: functional, cell-based
[8] = test system: NCI-H1975; experiment: Cytotoxicity against gefitinib-resistant human NCI-H1975 cells harboring EGFR L858R/[…] double mutant assessed as growth inhibition after 72 hrs by MTT assay; assay type: functional, cell-based; settings: NCI-H1975, 72 h
[9] = test system: Mus musculus; experiment: Toxicity in athymic BALB/c nude mouse xenografted with gefitinib-resistant human NCI-H1975 cells harboring EGFR L858R/[…] double mutant assessed as body mass loss at 14 mg/kg, ip qd administered for 14 days measured every other day during compound administration relative to vehicle-treated control; assay type: organism-based; design: dose 14 mg/kg, route intraperitoneal; settings: in vivo, 336 h
[10] = cells; assay type: functional, cell-based; settings: Homo sapiens, HCC827, 72 h
[11] = test system: NCI-H1975; experiment: Induction of NO production in human NCI-H1975 cells harboring EGFR L858R/[…] double mutant assessed as increase in nitrite level at 100 uM after 150 mins by Griess assay; assay type: functional, cell-based
[12] = Selectivity ratio of IC50 for human A549 cells harboring wild type EGFR and k-RAS mutation to IC50 for gefitinib-sensitive human HCC827 cells harboring EGFR […] deletion mutant; assay type: ADME, cell-based
[13] = test system: Epidermal growth factor receptor (Homo sapiens), P00533 [L858R,T790M]; experiment: Inhibition of EGFR L858R/[…] double mutant phosphorylation in gefitinib-resistant human NCI-H1975 cells assessed as inhibition of ERK phosphorylation after 24 hrs by Western blot analysis; assay type: cell-based
Chain of Epidermal growth factor receptor (Homo sapiens), P00533 [L858R,T790M] (P00533 whole entry T790M/L858R, looked up): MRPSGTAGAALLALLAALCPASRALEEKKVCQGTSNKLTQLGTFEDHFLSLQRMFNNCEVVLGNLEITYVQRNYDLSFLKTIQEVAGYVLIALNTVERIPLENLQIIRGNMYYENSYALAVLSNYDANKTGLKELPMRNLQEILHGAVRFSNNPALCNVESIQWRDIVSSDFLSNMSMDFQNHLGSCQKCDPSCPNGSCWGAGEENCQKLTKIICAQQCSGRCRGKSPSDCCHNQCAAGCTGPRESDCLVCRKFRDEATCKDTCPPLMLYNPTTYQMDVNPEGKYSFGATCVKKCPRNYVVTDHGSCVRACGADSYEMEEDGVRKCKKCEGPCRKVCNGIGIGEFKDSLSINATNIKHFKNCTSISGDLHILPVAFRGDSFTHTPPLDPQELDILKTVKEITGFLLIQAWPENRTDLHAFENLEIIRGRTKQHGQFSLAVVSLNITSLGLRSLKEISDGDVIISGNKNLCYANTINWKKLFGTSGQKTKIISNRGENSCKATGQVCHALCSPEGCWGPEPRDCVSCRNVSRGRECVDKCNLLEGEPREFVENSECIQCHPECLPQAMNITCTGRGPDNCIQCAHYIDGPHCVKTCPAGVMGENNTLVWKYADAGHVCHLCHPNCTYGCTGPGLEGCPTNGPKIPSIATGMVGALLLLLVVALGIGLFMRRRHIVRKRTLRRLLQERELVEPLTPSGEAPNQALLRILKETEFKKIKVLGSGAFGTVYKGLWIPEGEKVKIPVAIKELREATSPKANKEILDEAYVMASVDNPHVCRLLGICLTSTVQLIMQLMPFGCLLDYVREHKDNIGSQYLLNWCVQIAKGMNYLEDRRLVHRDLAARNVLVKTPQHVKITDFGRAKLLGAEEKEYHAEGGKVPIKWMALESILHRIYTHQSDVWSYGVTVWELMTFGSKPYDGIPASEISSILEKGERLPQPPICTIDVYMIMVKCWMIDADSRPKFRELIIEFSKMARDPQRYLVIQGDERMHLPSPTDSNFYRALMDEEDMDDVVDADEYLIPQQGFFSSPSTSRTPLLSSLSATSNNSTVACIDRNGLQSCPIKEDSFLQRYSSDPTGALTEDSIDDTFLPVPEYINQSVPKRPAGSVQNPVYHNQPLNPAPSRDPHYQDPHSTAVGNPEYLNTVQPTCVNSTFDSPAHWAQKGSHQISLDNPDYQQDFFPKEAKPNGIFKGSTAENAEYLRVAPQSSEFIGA

[14] = test system: Epidermal growth factor receptor (Homo sapiens), P00533 [L858R,T790M]; experiment: Inhibition of EGFR L858R/[…] double mutant phosphorylation in gefitinib-resistant human NCI-H1975 cells after 24 hrs by Western blot analysis; assay type: cell-based
[15] = target: Epidermal growth factor receptor (Homo sapiens, UniProt P00533, L858R/T790M); assay type: protein assay
Chain of Epidermal growth factor receptor (Homo sapiens, UniProt P00533, L858R/T790M) (P00533 25-1210 T790M/L858R limits assumed): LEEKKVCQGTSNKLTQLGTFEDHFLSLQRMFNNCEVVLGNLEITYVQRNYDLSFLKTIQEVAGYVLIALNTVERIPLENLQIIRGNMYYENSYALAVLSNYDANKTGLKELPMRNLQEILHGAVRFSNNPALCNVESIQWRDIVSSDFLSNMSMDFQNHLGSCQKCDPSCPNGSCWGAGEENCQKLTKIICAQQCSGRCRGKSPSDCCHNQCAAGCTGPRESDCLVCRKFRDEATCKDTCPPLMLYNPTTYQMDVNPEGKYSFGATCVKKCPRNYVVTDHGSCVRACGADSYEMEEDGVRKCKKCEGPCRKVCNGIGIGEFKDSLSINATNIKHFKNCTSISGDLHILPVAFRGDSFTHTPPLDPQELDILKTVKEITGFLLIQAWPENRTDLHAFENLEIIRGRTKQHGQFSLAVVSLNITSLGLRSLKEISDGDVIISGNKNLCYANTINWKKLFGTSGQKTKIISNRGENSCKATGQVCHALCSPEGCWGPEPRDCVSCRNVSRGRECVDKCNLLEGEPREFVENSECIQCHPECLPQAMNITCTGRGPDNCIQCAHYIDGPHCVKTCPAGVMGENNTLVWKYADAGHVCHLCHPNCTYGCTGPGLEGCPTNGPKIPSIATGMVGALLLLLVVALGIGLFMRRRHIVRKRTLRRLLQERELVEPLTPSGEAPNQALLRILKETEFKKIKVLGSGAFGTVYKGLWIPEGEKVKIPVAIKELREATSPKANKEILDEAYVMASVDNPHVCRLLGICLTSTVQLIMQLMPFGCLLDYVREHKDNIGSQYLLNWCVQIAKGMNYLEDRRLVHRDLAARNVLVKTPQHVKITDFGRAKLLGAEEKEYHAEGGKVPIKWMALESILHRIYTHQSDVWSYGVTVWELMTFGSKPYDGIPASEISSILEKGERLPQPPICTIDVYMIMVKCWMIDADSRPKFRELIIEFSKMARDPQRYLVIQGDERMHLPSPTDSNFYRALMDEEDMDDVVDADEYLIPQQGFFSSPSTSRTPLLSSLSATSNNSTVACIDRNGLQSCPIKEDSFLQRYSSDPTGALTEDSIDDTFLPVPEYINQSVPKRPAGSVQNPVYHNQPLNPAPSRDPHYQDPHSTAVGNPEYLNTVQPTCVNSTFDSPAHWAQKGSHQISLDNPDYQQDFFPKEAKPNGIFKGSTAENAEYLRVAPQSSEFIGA
Description: Inhibition of EGFR L858R/T790M double mutant (unknown origin) after 1.5 hrs by FRET-based Z'Lyte assay

[16] = Selectivity ratio of IC50 for human 16HBE14o- cells harboring wild type EGFR to IC50 for gefitinib-sensitive human HCC827 cells harboring EGFR […] deletion mutant; assay type: ADME, cell-based; settings: read-out: Ratio IC50
[17] = Selectivity ratio of IC50 for human A549 cells harboring wild type EGFR and k-RAS mutation to IC50 for gefitinib-resistant human NCI-H1975 cells harboring EGFR L858R/[…] double mutant; assay type: ADME, cell-based
[18] = test system: NCI-H1975; experiment: Antitumor activity against gefitinib-resistant human NCI-H1975 cells harboring EGFR L858R/[…] double mutant xenografted in athymic BALB/c nude mouse assessed as tumor growth inhibition at 14 mg/kg, ip qd administered for 14 days measured every other day during compound administration relative to vehicle-treated control; assay type: functional; settings: 336 h, route intraperitoneal, read-out: TGI
[19] = Selectivity ratio of IC50 for human BEAS2B cells harboring wild type EGFR to IC50 for gefitinib-sensitive human HCC827 cells harboring EGFR […] deletion mutant; assay type: ADME, cell-based; settings: read-out: Ratio IC50
[20] = cells; assay type: ADME, cell-based; settings: Homo sapiens, BEAS-2B, 72 h
Description: Cytotoxicity against human BEAS2B cells harboring wild type EGFR assessed as growth inhibition after 72 hrs by MTT assay

[21] = Selectivity ratio of IC50 for human BEAS2B cells harboring wild type EGFR to IC50 for gefitinib-resistant human NCI-H1975 cells harboring EGFR L858R/[…] double mutant; assay type: ADME, cell-based; settings: read-out: Ratio IC50
[22] = Selectivity ratio of IC50 for human A431 cells overexpressing wild type EGFR to IC50 for gefitinib-sensitive human HCC827 cells harboring EGFR […] deletion mutant; assay type: ADME, cell-based
[23] = Ratio of compound IC50 to WZ4002 IC50 for human BEAS2B cells harboring wild type EGFR; assay type: ADME, cell-based; settings: read-out: Ratio IC50
[24] = test system: A549; experiment: Ratio of compound IC50 to WZ4002 IC50 for human A549 cells harboring wild type EGFR and k-RAS mutation; assay type: ADME, cell-based
[25] = test system: A549; experiment: cells; assay type: ADME, cell-based; settings: Homo sapiens, A549, 72 h
Description: Cytotoxicity against human A549 cells harboring wild type EGFR and k-RAS mutation assessed as growth inhibition after 72 hrs by MTT assay

[26] = test system: Epidermal growth factor receptor (Homo sapiens), P00533 [L858R,T790M]; experiment: Inhibition of EGFR L858R/[…] double mutant phosphorylation in gefitinib-resistant human NCI-H1975 cells assessed as inhibition of AKT phosphorylation after 24 hrs by Western blot analysis; assay type: cell-based
[27] = test system: A-431; experiment: Ratio of compound IC50 to WZ4002 IC50 for human A431 cells overexpressing wild type EGFR; assay type: ADME, cell-based
[28] = test system: HCC827; experiment: Induction of apoptosis in gefitinib-sensitive human HCC827 cells harboring EGFR […] deletion mutant after 24 hrs by annexin-V/7-AAD staining-based FACS flow cytometric analysis; assay type: functional, cell-based
[29] = target: Epidermal growth factor receptor (Homo sapiens, UniProt P00533, L858R); assay type: protein assay
Chain of Epidermal growth factor receptor (Homo sapiens, UniProt P00533, L858R) (P00533 25-1210 L858R limits assumed): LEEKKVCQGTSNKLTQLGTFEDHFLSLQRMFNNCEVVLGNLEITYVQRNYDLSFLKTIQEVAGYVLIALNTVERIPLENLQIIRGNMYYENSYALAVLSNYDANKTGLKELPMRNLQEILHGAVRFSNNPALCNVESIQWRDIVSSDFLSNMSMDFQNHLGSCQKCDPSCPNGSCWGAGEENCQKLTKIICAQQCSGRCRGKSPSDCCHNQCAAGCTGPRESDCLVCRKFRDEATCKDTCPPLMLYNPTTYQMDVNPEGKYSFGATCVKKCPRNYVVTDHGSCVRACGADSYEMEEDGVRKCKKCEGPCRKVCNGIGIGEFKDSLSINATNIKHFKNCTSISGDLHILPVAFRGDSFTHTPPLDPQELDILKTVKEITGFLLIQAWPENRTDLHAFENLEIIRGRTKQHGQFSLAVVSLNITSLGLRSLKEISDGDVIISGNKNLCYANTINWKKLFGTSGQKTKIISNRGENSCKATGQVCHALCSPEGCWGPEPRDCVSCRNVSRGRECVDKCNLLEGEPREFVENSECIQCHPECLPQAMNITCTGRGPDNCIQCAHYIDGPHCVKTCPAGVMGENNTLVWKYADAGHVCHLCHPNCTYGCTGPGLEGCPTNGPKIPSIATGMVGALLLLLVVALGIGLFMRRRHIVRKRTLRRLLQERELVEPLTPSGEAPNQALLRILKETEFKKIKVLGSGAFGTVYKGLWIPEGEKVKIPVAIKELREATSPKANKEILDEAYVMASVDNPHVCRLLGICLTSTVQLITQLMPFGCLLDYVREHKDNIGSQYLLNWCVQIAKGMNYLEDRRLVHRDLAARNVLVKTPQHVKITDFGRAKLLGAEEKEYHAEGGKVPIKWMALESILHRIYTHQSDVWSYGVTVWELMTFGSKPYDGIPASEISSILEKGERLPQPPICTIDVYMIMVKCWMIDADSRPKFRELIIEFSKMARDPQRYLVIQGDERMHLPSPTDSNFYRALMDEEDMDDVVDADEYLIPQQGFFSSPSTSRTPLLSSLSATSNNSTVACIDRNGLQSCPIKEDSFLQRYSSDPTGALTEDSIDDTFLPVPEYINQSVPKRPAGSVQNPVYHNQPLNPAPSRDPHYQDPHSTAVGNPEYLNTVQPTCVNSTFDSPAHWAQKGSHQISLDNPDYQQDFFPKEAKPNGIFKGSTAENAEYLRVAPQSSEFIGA
Description: Inhibition of EGFR L858R mutant (unknown origin) after 1.5 hrs by FRET-based Z'Lyte assay

[30] = Induction of apoptosis in EGFR-independent human H460 cells at 1 to 5 uM after 24 hrs by annexin-V/7-AAD staining-based FACS flow cytometric analysis; assay type: cell-based; settings: nci-h460, 24 h
[31] = test system: NCI-H1975; experiment: Inhibition of NFkappaB phosphorylation in gefitinib-resistant human NCI-H1975 cells harboring EGFR L858R/[…] double mutant at 0.01 to 1 uM after 24 hrs by Western blot analysis; assay type: cell-based
[32] = Induction of NO production in human 16HBE14o- cells harboring wild type EGFR assessed as increase in nitrite level at 100 uM after 150 mins by Griess assay; assay type: cell-based; settings: 2.5 h
[33] = target: Epidermal growth factor receptor (Homo sapiens, UniProt P00533)
Chain of Epidermal growth factor receptor (Homo sapiens, UniProt P00533) (P00533 whole entry): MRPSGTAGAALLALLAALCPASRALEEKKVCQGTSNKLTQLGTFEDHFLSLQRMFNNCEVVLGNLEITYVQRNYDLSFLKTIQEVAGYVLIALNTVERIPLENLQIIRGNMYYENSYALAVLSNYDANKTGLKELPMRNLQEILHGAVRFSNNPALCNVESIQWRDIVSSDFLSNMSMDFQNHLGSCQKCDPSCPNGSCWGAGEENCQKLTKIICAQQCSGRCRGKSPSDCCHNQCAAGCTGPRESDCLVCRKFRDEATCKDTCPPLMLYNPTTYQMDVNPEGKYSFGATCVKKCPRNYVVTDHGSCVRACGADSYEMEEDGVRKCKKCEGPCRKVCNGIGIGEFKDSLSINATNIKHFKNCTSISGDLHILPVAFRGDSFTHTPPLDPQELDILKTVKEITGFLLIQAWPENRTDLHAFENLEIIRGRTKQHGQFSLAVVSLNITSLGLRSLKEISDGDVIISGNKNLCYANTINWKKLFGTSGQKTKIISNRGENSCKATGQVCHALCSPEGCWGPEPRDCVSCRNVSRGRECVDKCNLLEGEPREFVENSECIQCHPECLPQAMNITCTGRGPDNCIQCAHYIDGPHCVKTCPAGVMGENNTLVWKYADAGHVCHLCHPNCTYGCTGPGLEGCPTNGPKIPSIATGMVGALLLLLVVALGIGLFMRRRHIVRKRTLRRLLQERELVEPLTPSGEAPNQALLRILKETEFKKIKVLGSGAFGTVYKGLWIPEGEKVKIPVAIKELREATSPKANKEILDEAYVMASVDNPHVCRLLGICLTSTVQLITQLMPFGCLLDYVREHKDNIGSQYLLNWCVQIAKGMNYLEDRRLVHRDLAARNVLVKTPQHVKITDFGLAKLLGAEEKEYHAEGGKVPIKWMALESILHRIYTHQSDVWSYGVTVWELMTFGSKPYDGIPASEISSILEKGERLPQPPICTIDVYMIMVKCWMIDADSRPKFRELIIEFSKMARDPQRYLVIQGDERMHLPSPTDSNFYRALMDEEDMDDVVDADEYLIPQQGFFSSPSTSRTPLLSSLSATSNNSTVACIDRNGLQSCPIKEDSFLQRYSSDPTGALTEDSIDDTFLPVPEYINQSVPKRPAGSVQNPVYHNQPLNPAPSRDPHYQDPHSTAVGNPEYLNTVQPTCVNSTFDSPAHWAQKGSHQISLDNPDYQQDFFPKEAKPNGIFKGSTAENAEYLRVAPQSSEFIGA
Description: Inhibition of wild type EGFR (unknown origin) after 1.5 hrs by FRET-based Z'Lyte assay

Structure (SMILES): C=CC(=O)Nc1cccc(Oc2nc(Nc3ccc(N4CCN(CC(=O)OCCCCCCOc5no[n+]([O-])c5S(=O)(=O)c5ccccc5)CC4)cc3OC)ncc2Cl)c1
- growth inhibition (GI) [1]: inactive
- Activity [2]: Dose-dependent effect
- Ratio IC50 [3]: 60
- IC50 [4]: 5.67 µM
- selectivity ratio [5]: 40
- IC50 [6]: 23.9 µM
- growth inhibition (GI) [7]: inactive
- IC50 [8]: 29 nM
- Activity [9]: Non-toxic
- IC50 [10]: 7 nM
- Activity [11]: Active
- Ratio IC50 [12]: 60
- inhibition [13]: Dose-dependent effect
- inhibition [14]: Dose-dependent effect
- IC50 [15]: 47 nM
- selectivity ratio [16]: 40
- Ratio IC50 [17]: 60
- inhibition in vivo at 14 mg/kg [18]: 60%
- selectivity ratio [19]: 40
- IC50 [20]: 44.6 µM
- selectivity ratio [21]: 40
- Ratio IC50 [22]: 60
- selectivity ratio [23]: 5
- Ratio IC50 [24]: 5
- IC50 [25]: > 50 µM
- inhibition [26]: Dose-dependent effect
- Ratio IC50 [27]: 5
- Activity [28]: Dose-dependent effect
- IC50 [29]: 305 nM
- Activity [30]: Non-toxic
- inhibition [31]: Active
- Activity [32]: Non-toxic
- IC50 [33]: 292 nM
